Assay [1] concerns Vero. The assay can be described thus: Vero 76 cell viability after compound exposure – Vero 76 cells, synthesized analogs, cytotoxicity control for West Nile virus antiviral project, SAR follow-up (AID 2414). As to conditions: Chlorocebus sabaeus. Type of assay: functional.
Assay [2] has as its system Vero. The assay can be described thus: Vero cell viability after compound exposure – synthesized analogs, set II, cytotoxicity control for West Nile virus antiviral project, SAR follow-up (AID 2402). Type of assay: functional. To be noted: Chlorocebus sabaeus.
Assay [3] can be described thus: cells. To be noted: A549.
Assay [4] has as its target Galanin receptor type 2 (Homo sapiens, UniProt O43603). The assay can be described thus: Dose Response cell-based high-throughput screening assay to identify agonists of galanin receptor 2 (GALR2). [Related pubchem assays: 864 ]. Type of assay: functional.
The subject of assay [5] is Streptococcus. Put plainly: GAS UMAA2166 growth inhibition – luminescence, BacTiterGlo, counter-screen for streptokinase expression inhibitor project, dose response (AID 1915).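 Further: potency for reduction of bacterial viability or growth.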 Type of assay: functional, organism-based. (In general: A counterscreen serves to expose hits that act by an unwanted route or on another target.)
For assay [6], the target named is Nonstructural protein 1 (Influenza A virus, UniProt Q194T2). Type of assay: functional, Influenza A virus (A/California/07/2009(H1N1)).
Assay [7] in a line: HGIII-sPLA2 enzyme inhibition potency – biochemical, QFRET, IC50, dose response (AID 743457).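 Further: green fluorescence rise as the enzyme cleaves BODIPY PC-A2 in liposomes.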
A short description of assay [8]: viability loss in HepG2 liver cells – cell-based, ATP luminescence, cherry-pick, set 6, cytotoxicity control, dose response (AID 1053125). It is filed as functional.
Assay [9] in a line: cells. As to conditions: HEK293.
For assay [10], the system named is Streptococcus sp. 'group A'. The assay can be described thus: Streptococcus pyogenes SK(-)GAS viability under kanamycin – luminescence, BacTiterGlo, confirmation, counter-screen for streptokinase expression inhibitor project, dose response (AID 1900). It is filed as functional, organism-based.
The test system of assay [11] is INS1. Put plainly: INS-1E survival protection against cytokine death – cell-based, luminescence, retest, dose response (AID 449756).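 Further: cell death triggered by IL-1 beta plus TNF-alpha plus IFN-gamma mixture; protective hits raise ATP signal compared with cytokine alone wells.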 It is filed as functional. To be noted: Rattus norvegicus.
In assay [12] the test system is H4. Put plainly: Luminescence Cell-Based Dose Response HTS to Identify Activators of 5'UTR Stem-Loop Driven Prion Protein mRNA Translation in H4 Neuroglioblastoma Cells. [Related pubchem assays: 1829 (Project Summary), 1814 (Primary HTS)]. Type of assay: functional. As to conditions: Homo sapiens.
Assay [13] is described as follows: Luminescence Cell-Based Dose Response HTS to Identify Activators of Luciferase Translation or Activity in H4 […] Cells. [Related pubchem assays: 1829 (Project Summary), 1814 (Primary HTS)]. It is filed as functional.
The target of assay [14] is Voltage-gated inwardly rectifying potassium channel KCNH2 (Homo sapiens, UniProt Q12809). Put plainly: concentration-dependent hERG rescue from blockers – cell-based, thallium flux, dose response (AID 2121). Type of assay: ADME. For orientation: hERG is a cardiac potassium channel; its block is linked to QT prolongation.
Assay [15] in a line: Luminescence Cell-Based Dose Confirmation HTS to Identify Activators of 5'UTR Stem-Loop Driven Alpha-Synuclein mRNA Translation in H4 Neuroglioblastoma Cells. [Related pubchem assays: 1829 (Project Summary), 1814 (Primary HTS)]. Type of assay: functional.
In assay [16] the target is Voltage-gated N-type calcium channel alpha-1B subunit/Amyloid beta A4 precursor protein-binding family A member 1 (Homo sapiens, UniProt Q00975+Q02410). Type of assay: protein assay.
In assay [17] the target is Genome polyprotein (Hepatitis C virus, UniProt Q2Q167). The assay can be described thus: disruption of hepatitis C core self-association – biochemical, TR-FRET, dose response (AID 2159).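 Further: blocks dimerization of HCV core protein measured by TR-FRET between tagged core106 pairs.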 Also noted: species or system Hepacivirus hominis.
The target in assay [18] is T1, Tyrosine-protein phosphatase non-receptor type 7 (Homo sapiens, UniProt P35236).
T1 sequence (P35236 whole entry): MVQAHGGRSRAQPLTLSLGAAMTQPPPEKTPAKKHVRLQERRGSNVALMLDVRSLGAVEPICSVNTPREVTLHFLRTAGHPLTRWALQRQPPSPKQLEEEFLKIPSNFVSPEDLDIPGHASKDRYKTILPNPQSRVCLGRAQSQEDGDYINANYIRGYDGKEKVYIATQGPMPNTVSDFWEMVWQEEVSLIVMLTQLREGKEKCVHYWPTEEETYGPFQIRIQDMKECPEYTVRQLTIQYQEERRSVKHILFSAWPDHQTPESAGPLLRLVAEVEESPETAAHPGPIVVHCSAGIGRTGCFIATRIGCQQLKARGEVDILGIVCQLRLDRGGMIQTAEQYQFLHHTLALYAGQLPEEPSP
The assay can be described thus: HePTP tyrosine phosphatase activity blockers – biochemical, absorbance, leukemia target, primary screen (AID 521). Type of assay: functional.

Assay [19] has as its target Diphosphomevalonate decarboxylase (Streptococcus pneumoniae serotype 2 (strain D39 / NCTC 7466), UniProt Q9FD53). The assay can be described thus: diphosphomevalonate decarboxylase inhibitor confirmation – biochemical, cuvette format, coupled NADH fluorescence (AID 1028). It is filed as functional.
Assay [20] concerns the target Ubiquitin carboxyl-terminal hydrolase BAP1 (Homo sapiens, UniProt Q92560). Put plainly: inhibition of BAP1 ubiquitin hydrolase activity – biochemical, dose response (AID 714). Type of assay: functional.
The nature of assay [21]: cells. Type of assay: functional.
Assay [22] concerns HT-1080. Put plainly: HT1080 cell viability loss – fluorescence readout (AID 620). Type of assay: functional, cell-based. As to conditions: Homo sapiens.
In assay [23] the target is Glyceraldehyde-3-phosphate dehydrogenase (Homo sapiens, UniProt P04406).
For assay [24], the target named is T2, Bcl-2-related protein A1 (Mus musculus, UniProt Q07440).
T2 sequence (Q07440 whole entry): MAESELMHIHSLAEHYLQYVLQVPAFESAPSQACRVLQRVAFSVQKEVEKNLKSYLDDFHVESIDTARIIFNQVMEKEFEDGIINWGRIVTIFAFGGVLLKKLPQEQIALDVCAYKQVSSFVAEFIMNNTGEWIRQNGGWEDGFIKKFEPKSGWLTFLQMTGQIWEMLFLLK
The assay can be described thus: displacement of Bid BH3 peptide from Bfl-1 – biochemical, fluorescence polarization, FITC-Bid, mouse, primary screen (AID 432).

The target in assay [25] is T2, Bcl-2-related protein A1. Put plainly: small-molecule antagonists of Bfl-1/BH3 interaction – biochemical, TR-FRET, mouse Bfl-1, confirmation (AID 621).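 Further: TR-FRET binding of GST-Bfl-1 to FITC-labelled Bid peptide via terbium antibody.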 Background: In TR-FRET formats the signal depends on donor and acceptor labels being close together.
Assay [26] addresses T3, NADPH oxidase 1 (Homo sapiens, UniProt Q9Y5S8).
T3 sequence (Q9Y5S8 whole entry): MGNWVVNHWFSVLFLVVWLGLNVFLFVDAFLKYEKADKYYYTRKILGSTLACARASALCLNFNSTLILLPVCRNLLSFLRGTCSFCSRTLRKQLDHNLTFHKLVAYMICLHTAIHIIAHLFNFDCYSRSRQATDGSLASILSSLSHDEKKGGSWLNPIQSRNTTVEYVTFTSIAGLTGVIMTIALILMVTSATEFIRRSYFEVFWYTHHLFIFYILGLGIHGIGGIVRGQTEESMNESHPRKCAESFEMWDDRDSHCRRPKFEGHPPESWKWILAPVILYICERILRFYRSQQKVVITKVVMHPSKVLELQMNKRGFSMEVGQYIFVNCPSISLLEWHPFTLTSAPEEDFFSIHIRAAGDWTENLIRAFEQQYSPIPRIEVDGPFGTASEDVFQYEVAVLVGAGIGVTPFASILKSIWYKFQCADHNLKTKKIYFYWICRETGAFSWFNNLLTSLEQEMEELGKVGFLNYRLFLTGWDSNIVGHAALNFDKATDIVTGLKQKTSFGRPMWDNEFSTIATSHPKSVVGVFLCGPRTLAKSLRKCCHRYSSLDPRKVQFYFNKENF
Put plainly: Late-stage luminescence-based cell-based dose response assay to identify inhibitors of NADPH oxidase 1 (NOX1): Purchased analogs 2. It is filed as functional.

Assay [27] can be described thus: Luminescent dose response cell-based high throughput screening assay for inhibitors of the Janus kinase 2 mutant JAK2V617F. [Related pubchem assays: 1446 (Primary screen.), 1521 (Confirmation assay.), 1486 (Counter screen.)]. It is filed as functional.
Assay [28] addresses 5-hydroxytryptamine receptor 1A (Homo sapiens, UniProt P08908). It is filed as functional.
Assay [29] is described as follows: antibacterial activity against E. coli NEB5alpha – luminescence, counter-screen for MEX-5/POS-1 RNA-binding inhibitor project, dose response (AID 1959). It is filed as functional.
Assay [30] addresses T4, RNA-binding protein pos-1 (Caenorhabditis elegans, UniProt G5EF15).
T4 sequence (G5EF15 whole entry): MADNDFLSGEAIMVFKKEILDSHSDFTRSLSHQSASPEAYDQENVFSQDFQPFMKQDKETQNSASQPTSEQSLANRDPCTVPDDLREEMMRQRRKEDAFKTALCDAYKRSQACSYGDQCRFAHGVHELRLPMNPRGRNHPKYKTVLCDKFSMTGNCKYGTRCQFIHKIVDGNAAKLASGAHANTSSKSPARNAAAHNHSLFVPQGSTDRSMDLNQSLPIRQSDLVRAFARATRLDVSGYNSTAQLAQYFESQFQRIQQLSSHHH
Put plainly: disruptors of C. elegans POS-1 RNA interaction – biochemical, fluorescence polarization, dose response (AID 1964).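 Further: purified POS-1 fused to maltose binding protein made in E. coli; potency of compounds blocking POS-1 binding to fluorescent RNA.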

The target of assay [31] is T5, Zinc finger protein mex-5 (Caenorhabditis elegans, UniProt Q9XUB2).
T5 sequence (Q9XUB2 whole entry): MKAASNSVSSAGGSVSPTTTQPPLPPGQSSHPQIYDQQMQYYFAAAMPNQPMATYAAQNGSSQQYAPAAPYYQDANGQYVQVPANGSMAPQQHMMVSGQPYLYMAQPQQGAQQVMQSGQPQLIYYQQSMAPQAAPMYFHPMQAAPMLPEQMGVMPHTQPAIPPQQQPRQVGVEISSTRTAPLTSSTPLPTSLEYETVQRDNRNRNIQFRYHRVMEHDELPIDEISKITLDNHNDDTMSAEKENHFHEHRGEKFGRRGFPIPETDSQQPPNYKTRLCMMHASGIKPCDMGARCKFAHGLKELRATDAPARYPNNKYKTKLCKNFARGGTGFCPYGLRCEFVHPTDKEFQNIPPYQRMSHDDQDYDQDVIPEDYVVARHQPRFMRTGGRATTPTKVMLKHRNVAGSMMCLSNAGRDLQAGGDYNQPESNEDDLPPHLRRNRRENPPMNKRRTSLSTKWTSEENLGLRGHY
The assay can be described thus: potency of MEX-5 RNA-binding blockers – biochemical, C. elegans, fluorescence polarization, dose response (AID 1960).

Each structure is given as a SMILES string. The source made the active and inactive calls. A value given as a limit tells only on which side of the number the result lay.

Voltage-gated inwardly rectifying potassium channel KCNH2, sequence (Q12809 whole entry): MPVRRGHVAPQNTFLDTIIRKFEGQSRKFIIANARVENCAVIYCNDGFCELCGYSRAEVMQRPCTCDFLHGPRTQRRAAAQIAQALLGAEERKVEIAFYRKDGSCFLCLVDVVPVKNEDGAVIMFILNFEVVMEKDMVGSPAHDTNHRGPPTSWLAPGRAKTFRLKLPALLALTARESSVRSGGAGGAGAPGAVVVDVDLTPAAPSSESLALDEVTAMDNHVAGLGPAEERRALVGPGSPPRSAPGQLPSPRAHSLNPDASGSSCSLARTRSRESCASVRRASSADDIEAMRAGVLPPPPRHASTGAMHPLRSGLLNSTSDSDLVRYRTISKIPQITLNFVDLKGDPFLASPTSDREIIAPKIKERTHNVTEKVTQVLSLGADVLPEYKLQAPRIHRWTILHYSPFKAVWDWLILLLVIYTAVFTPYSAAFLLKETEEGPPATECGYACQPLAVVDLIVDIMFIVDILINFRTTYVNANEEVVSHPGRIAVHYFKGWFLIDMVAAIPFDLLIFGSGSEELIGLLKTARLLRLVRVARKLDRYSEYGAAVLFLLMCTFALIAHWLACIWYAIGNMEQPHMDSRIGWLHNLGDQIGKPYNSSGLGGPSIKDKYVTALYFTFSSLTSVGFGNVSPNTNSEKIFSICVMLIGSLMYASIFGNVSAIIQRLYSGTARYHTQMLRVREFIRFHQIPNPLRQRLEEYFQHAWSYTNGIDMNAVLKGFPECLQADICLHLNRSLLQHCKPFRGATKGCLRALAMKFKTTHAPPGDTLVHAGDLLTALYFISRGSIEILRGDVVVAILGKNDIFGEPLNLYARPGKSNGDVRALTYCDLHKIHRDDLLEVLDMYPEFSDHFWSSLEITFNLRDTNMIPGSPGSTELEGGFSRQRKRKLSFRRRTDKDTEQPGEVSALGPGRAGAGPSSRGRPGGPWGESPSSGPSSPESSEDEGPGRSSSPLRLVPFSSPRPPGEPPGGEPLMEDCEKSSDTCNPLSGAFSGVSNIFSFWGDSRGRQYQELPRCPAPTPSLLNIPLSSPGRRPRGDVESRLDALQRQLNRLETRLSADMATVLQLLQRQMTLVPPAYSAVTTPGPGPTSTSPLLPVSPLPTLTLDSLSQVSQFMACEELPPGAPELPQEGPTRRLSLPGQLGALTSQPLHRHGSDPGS
Genome polyprotein, sequence (Q2Q167 whole entry): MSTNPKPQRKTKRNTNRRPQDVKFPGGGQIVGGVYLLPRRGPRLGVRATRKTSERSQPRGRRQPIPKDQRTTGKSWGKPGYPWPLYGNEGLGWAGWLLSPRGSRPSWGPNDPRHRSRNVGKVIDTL
5-hydroxytryptamine receptor 1A, sequence (P08908 whole entry): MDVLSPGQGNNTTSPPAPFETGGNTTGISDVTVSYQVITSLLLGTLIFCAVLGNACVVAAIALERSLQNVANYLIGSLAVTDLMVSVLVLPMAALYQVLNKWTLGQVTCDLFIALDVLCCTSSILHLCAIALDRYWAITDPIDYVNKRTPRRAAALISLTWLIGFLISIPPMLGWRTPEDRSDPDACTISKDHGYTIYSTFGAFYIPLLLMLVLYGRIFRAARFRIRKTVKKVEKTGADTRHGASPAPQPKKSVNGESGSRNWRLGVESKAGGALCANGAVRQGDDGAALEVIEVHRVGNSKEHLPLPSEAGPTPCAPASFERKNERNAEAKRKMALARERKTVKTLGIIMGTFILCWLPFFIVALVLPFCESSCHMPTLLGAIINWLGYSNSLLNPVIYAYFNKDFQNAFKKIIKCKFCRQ
Voltage-gated N-type calcium channel alpha-1B subunit/Amyloid beta A4 precursor protein-binding family A member 1, sequence (Q00975 whole entry): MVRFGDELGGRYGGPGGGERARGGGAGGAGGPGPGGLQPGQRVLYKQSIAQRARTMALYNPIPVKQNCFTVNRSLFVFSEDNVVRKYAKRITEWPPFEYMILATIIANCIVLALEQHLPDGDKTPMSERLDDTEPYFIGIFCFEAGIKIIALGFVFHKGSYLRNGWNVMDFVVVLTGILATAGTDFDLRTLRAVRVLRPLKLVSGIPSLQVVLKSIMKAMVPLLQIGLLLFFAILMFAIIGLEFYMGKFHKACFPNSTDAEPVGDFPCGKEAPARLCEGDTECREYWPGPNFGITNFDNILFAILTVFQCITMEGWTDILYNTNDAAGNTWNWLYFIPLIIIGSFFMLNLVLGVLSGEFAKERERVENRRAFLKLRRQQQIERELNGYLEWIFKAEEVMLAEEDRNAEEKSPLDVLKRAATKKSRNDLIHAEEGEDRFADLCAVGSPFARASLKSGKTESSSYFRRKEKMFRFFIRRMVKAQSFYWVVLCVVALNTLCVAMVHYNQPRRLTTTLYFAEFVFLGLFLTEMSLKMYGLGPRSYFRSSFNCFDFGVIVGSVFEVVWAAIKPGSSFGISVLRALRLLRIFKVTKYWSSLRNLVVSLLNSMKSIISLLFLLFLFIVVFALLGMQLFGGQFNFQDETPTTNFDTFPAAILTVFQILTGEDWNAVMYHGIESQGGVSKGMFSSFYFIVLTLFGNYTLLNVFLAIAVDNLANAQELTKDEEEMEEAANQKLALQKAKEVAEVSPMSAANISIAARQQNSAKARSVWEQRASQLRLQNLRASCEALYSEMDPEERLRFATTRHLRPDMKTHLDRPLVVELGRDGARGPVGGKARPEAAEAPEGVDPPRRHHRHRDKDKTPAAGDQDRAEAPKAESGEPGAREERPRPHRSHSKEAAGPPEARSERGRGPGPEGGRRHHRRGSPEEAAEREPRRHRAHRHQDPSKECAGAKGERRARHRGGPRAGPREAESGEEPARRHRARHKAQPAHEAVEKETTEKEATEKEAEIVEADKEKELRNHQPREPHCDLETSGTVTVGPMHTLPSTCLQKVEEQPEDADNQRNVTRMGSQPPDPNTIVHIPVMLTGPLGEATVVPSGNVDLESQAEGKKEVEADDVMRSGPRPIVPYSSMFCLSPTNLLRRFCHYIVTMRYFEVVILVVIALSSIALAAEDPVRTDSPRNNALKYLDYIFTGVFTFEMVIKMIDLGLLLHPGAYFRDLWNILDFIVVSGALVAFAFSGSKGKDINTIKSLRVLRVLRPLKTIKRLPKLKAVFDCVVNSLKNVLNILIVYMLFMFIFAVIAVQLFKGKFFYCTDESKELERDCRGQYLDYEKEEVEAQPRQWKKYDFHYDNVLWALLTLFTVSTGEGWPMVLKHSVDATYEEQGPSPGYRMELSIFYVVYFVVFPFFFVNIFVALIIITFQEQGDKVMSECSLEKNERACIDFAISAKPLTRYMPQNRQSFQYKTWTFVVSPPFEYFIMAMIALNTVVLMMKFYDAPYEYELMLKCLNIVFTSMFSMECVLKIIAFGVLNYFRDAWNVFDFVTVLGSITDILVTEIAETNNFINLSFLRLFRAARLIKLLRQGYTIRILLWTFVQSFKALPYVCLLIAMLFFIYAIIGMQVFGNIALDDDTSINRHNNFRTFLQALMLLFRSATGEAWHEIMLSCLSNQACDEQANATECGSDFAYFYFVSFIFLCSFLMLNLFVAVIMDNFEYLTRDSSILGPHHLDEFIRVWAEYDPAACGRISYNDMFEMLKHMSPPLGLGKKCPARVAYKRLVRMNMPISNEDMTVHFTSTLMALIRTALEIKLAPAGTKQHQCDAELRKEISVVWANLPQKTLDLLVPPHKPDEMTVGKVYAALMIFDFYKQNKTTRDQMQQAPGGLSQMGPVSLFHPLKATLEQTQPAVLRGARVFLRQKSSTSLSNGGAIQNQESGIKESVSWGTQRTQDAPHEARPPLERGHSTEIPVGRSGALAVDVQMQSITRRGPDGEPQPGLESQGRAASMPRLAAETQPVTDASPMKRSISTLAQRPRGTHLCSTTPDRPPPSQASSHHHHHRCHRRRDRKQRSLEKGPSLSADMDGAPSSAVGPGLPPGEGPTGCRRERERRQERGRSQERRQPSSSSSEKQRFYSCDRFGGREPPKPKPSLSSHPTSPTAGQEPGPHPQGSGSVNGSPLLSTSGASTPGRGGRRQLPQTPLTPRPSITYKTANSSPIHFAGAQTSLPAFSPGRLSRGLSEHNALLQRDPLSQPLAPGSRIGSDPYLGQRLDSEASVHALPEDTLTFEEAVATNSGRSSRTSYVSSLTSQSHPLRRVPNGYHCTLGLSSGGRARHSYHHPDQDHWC
Voltage-gated N-type calcium channel alpha-1B subunit/Amyloid beta A4 precursor protein-binding family A member 1, sequence (Q02410 whole entry): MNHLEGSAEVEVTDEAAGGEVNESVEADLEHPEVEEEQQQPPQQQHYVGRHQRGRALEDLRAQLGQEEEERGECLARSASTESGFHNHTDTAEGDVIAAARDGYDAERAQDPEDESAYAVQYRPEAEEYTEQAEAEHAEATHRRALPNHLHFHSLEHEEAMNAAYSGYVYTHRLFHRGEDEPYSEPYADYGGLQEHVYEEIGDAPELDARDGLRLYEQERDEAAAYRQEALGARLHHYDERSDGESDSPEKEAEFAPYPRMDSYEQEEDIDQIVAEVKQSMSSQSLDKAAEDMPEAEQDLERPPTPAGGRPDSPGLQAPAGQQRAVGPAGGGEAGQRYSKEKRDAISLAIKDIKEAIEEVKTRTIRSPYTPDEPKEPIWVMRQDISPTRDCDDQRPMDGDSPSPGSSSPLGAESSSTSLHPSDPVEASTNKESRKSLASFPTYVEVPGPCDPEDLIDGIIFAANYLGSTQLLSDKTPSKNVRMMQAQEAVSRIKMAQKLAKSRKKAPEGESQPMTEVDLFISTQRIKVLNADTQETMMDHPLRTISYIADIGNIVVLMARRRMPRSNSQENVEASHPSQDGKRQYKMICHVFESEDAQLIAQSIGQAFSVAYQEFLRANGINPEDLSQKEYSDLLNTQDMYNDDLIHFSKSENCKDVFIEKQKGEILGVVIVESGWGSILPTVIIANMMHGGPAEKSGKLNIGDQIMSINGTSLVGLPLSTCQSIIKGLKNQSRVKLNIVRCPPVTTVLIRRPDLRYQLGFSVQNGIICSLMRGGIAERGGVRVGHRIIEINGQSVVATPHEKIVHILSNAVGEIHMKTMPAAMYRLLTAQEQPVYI

The CC50 is the concentration that lowers cell viability or growth by half. Regarding `OC1c2cc(Br)ccc2N=C2CCCCCN21` (stereo unspecified), the CC50 in assay [1] is 61 µM (active); in assay [2], 37.6 µM (active).
Usually AC50 stands for the concentration giving half of the maximal activity seen. One may read the EC50 as the midpoint of the concentration-response curve. A word on the IC50: it is the concentration needed to halve the response being measured. On to `Cc1cccc2sc(NNC(=O)c3ccc(S(=O)(=O)N4CCCC(C)C4)cc3)nc12` (stereo unspecified), for which the AC50 in [3] is 8.96 µM (active); in assay [8], 4.56 µM (active); in [9], 4.7 µM (active); in assay [11], 1.12 µM (active). Further, the EC50 is > 55.7 µM (not active) in [4], 8.56 µM (active) in [5] and 493 nM (active) in assay [10]. The values for the IC50 in [6] and in assay [7] were > 100 µM (active) and 21.3 µM (inactive), respectively.
`CCOC(=O)c1sc(NC(=S)NC(=O)c2ccccc2)nc1C`: the EC50 in assay [12] is 25 µM (active); in [13], 7.98 µM (active); in assay [14], 3.68 µM (active); in [15], 17.6 µM (active).
Turning to `Nc1cccc(-c2nc3cc(S(=O)(=O)c4ccc5oc(-c6cccc(N)c6)nc5c4)ccc3o2)c1`, the IC50 in assay [16] is 13.2 µM (active).
Turning to `Sc1nc(Cc2ccccc2)nc2ccccc12`, in assay [17], the IC50 was > 49.8 µM (not active).
Consider `O=C(Nc1nncs1)c1c(F)c(F)c(F)c(F)c1F`, for which the IC50 in [18] is given as > 100 µM (not active).
Turning to `O=C(NCc1ccccc1)c1ccc(-n2sc3ccccc3c2=O)cc1`, the IC50 in [19] was 9.98 µM (active).
As to `COc1ccc2nc(NC(=O)CCc3nc(-c4ccccc4F)no3)sc2c1`, the IC50 in assay [20] is reported as 36.6 µM (not active).
Regarding `CCOc1ccc(OCc2ccc(C(=O)OCc3ccccn3)o2)cc1`, the values for the IC50 in [21] and in [23] were 36 µM (active) and > 100 µM (not active), respectively. For the same compound, the EC50 in [22] was > 50 µM (not active).
As for `CN(C)c1ccc(-c2nn3c(-c4ccc(Cl)cc4Cl)nnc3s2)cc1`, the IC50 in [24] and in assay [25] was > 100 µM (not active) throughout.
For the compound `O=C(Nc1ccc(Oc2ccc(Cl)cc2)cc1)Nc1ccc([N+](=O)[O-])cc1`, the IC50 in [26] is given as > 17 µM (not active).
`Oc1ccccc1OCCOc1ccccc1OCCOc1ccccc1O`: the IC50 in assay [27] was 1.48 µM (active).
Regarding `c1ccc(N2CCN(Cc3cn4cccnc4n3)CC2)cc1`, the EC50 in assay [28] is given as > 50 µM (not active).
As to `O=c1c2ccccc2nc(N/N=C/c2ccc(O)cc2)n1O`, the EC50 is 14.3 µM (active) in assay [29], > 300 µM (not active) in assay [30] and > 300 µM (inconclusive) in [31].

(Values after ChEMBL document CHEMBL1201862, “PubChem BioAssay data set” (2004).)
